US9133163B2, “Dihydropyrazole GPR40 modulators” (Bristol-Myers Squibb Company, priority 2012, dated 2015)

Key:
[1] = target: T1, hGPR40 (Homo sapiens, UniProt O14842); assay: FDSS-based intracellular calcium assay; assay type: cell-based; parameters: 3xFLAG; expressed in transfected cells; details: intracellular Ca2+ response, cells expressing GPR40
Method: FDSS-Based Intracellular Calcium Assay
Compounds are dissolved in DMSO and diluted to desired concentrations with assay buffer and added to the cells as 3× solution (20 μL per well). Run fluorescence/luminescence reader FDSS (Hamamatsu) to read intracellular Ca^2+ response.

[2] = target: T1, hGPR40; assay: GPR40 IP-One HTRF assay in HEK293/GPR40 inducible cell lines; assay type: cell-based; parameters: expressed in transfected cells; details: HEK293 cells with tetracycline-inducible human GPR40; read-out: hGPR40 IP1 EC50
Method: GPR40 IP-One HTRF Assays in HEK293/GPR40 Inducible Cell Lines
Human, mouse and rat GPR40-mediated intracellular IP-One HTRF assays were established using human embryonic kidney HEK293 cells stably transfected with a tetracycline-inducible human, mouse or rat GPR40 receptor. Cells were routinely cultured in growth medium containing DMEM (Gibco Cat. #12430-047), 10% qualified FBS (Sigma, Cat. #F2442), 200 μg/ml hygromycin (Invitrogen, Cat. #16087-010) and 1.5 μg/ml blasticidin (Invitrogen, Cat. #R210-01). About 12-15 million cells were passed into a T175 tissue culture flask (BD FALCON® 353112) with growth medium and incubated for 16-18 hours (overnight) at 370 C with 5% CO2. The next day, assay medium was exchanged with growth medium containing 1000 ng/mL of tetracycline (Fluka Analytical, Cat. #87128) to induce GPR40 expression for 18-24 hours at […] incubator with 5% CO2. After induction, the cells were washed with PBS (Gibco, Cat. #14190-036) and detached with Cell Stripper (CELLGRO®, Cat. #25-056-CL). 10-20 mL growth medium were added to the flask and cells were collected in 50 mL tubes (FALCON®, Cat. #352098) and spun at 1000 RPM for 5 minutes. Culture medium was aspirated and the cells were resuspended in 10 mL of 1× IP-One Stimulation Buffer from the Cisbio IP-One kit (Cisbio, Cat. #62IPAPEJ). The cells were diluted to 1.4×10^6 cells/mL in Stimulation Buffer.
Test compounds were 3-fold, 11-point serially diluted in DMSO in a REMP assay plate (Matrix Cat. #4307) by BIOCEL® (Agilent). The compounds were transferred into an Echo plate (LABCYTE, Cat. #LP-0200) and […] of diluted compounds were transferred to an assay plate (proxi-plate from Perkin Elmer, Cat. #6008289) by Echo acoustic nano dispenser (LABCYTE, model ECHO550). 14 μL of the diluted cells were then added to the assay plate by Thermo (SN 836 330) CombiDrop and incubated at room temperature for 45 minutes. Then 3 μL of IP1 coupled to dye D2 from the Cisbio IP-One kit were added to the assay plate followed by 3 μL of Lumi4TM-Tb cryptate K from the kit. The plate was further incubated at room for 1 hour before reading on the Envision (Perkin Elmer Model2101) with an HTRF protocol. Activation data for the test compound over a range of concentrations was plotted as percentage activation of the test compound (100%=maximum response). After correcting for background [(sample read-mean of low control)/(mean of high control−mean of low control)](low control is DMSO without any compound), EC50 values were determined. The EC50 is defined as the concentration of test compound which produces 50% of the maximal response and was quantified using the 4 parameter logistic equation to fit the data.

T1 sequence (O14842 whole entry): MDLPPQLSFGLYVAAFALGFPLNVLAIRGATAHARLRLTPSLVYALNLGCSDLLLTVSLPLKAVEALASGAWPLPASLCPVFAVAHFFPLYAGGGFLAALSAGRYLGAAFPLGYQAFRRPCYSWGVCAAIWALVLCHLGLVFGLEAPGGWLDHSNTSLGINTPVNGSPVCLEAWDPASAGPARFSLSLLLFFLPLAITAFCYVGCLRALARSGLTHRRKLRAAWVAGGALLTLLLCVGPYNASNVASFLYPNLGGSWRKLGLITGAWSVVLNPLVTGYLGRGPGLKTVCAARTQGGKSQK

Row | SMILES | EC50 [1] [nM] | EC50 [2] [nM]
1 | COc1ccc(F)c(N2CCC(Oc3ccc(N4N=C(C(F)(F)F)[C@@H](C)[C@@H]4CC(=O)O)cc3)C(F)C2)c1 (single isomer, unassigned) [Example 57 (Isomer 4)] | 66 | 11
2 | CCOc1ccc(F)c(N2CC[C@@H](Oc3ccc(N4N=C(c5ccc(C#N)cc5)[C@@H](CC)[C@@H]4CC(=O)O)cc3)[C@H](C)C2)c1 [Example 99, 2-((4S,5S)-3-(4-Cyanophenyl)-1-(4-(((3R,4R)-1-(5-ethoxy-2-fluorophenyl)-3-methylpiperidin-4-yl)oxy)phenyl)-4-ethyl-4,5-dihydro-1H-pyrazol-5-yl)acetic acid] | 25 | 20
3 | CC(C)Oc1ccc(F)c(N2CCC(Oc3ccc(N4N=C(C(F)(F)F)[C@@H](C)[C@@H]4CC(=O)O)cc3)C(C)C2)c1 (stereo partly drawn) [Example 12, 2-((4S,5S)-1-(4-((1-(2-Fluoro-5-isopropoxyphenyl)-3-methylpiperidin-4-yl)oxy)phenyl)-4-methyl-3-(trifluoromethyl)-4,5-dihydro-1H-pyrazol-5-yl)acetic acid] | 311 | 253
4 | CCOc1ccc(F)c(N2CCC(Oc3ccc(N4N=C(C(F)(F)F)[C@@H](C)[C@@H]4CC(=O)O)cc3)C(CC(C)C)C2)c1 (single isomer, unassigned) [Example 27 (Isomer 1)] | 412 | 90
5 | CCc1cccc(N2CCC(Oc3ccc(N4N=C(C(F)(F)F)[C@@H](C)[C@@H]4CC(=O)O)cc3)CC2)c1 [Example 71, 2-((4S,5S)-1-(4-((1-(3-Ethylphenyl)piperidin-4-yl)oxy)phenyl)-4-methyl-3-(trifluoromethyl)-4,5-dihydro-1H-pyrazol-5-yl)acetic acid] | 1180 | 224
6 | Cc1ccc(F)c(N2CCC(Oc3ccc(N4N=C(C(F)(F)F)[C@@H](C)[C@@H]4CC(=O)O)cc3)CC2)c1 [Example 36, 2-((4S,5S)-1-(4-((1-(2-Fluoro-5-methylphenyl)piperidin-4-yl)oxy)phenyl)-4-methyl-3-(trifluoromethyl)-4,5-dihydro-1H-pyrazol-5-yl)acetic acid] | 440 | 86
7 | CCOc1ccc(F)c(N2CCC(Oc3ccc(N4N=C(c5ccc(F)cc5)[C@@H](C)[C@@H]4CC(=O)O)cc3)CC2)c1 [Example 95, 2-((4S,5S)-1-(4-((1-(5-Ethoxy-2-fluorophenyl)piperidin-4-yl)oxy)phenyl)-3-(4-fluorophenyl)-4-methyl-4,5-dihydro-1H-pyrazol-5-yl)acetic acid] | 108 | –
8 | COc1ccc(F)c(N2CCC(Oc3ccc(N4N=C(C(F)(F)F)[C@@H](CC(C)C)[C@@H]4CC(=O)O)cc3)CC2)c1 (single isomer, unassigned) [Example 89, Isomer 2] | 390 | –
9 | Cc1ccc(F)c(N2CCC(Oc3ccc(N4N=C(C(F)(F)F)[C@@H](C)[C@@H]4CC(=O)O)cc3)CC2)n1 [Example 61, 2-((4S,5S)-1-(4-((1-(3-Fluoro-6-methylpyridin-2-yl)piperidin-4-yl)oxy)phenyl)-4-methyl-3-(trifluoromethyl)-4,5-dihydro-1H-pyrazol-5-yl)acetic acid] | 366 | –
10 | COc1ccc(F)c(N2CCC(Oc3ccc(N4N=C(c5ncccn5)C(C)C4CC(=O)O)cc3)CC2)c1 (single isomer, unassigned) [Example 22, Isomer 2, 2-(1-(4-((1-(2-Fluoro-5-methoxyphenyl)piperidin-4-yl)oxy)phenyl)-4-methyl-3-(pyrimidin-2-yl)-4,5-dihydro-1H-pyrazol-5-yl)acetic acid] | 5570 | –
11 | COc1ccc(Cl)c(N2CCC(Oc3ccc(N4N=C(C(F)(F)F)[C@@H](C)[C@@H]4CC(=O)O)cc3)CC2)c1 [Example 33, 2-((4S,5S)-1-(4-((1-(2-Chloro-5-methoxyphenyl)piperidin-4-yl)oxy)phenyl)-4-methyl-3-(trifluoromethyl)-4,5-dihydro-1H-pyrazol-5-yl)acetic acid] | 103 | –
12 | Cc1ccccc1N1CCC(Oc2ccc(N3N=C(C(F)(F)F)[C@@H](C)[C@@H]3CC(=O)O)cc2)CC1 [Example 39, 2-((4S,5S)-4-Methyl-1-(4-((1-(o-tolyl)piperidin-4-yl)oxy)phenyl)-3-(trifluoromethyl)-4,5-dihydro-1H-pyrazol-5-yl)acetic acid] | 498 | –
13 | C[C@@H]1C(C(F)(F)F)=NN(c2ccc(OC3CCN(c4cc(F)ccc4F)CC3)cc2)[C@H]1CC(=O)O [Example 38, 2-((4S,5S)-1-(4-((1-(2,5-Difluorophenyl)piperidin-4-yl)oxy)phenyl)-4-methyl-3-(trifluoromethyl)-4,5-dihydro-1H-pyrazol-5-yl)acetic acid] | 475 | –
14 | C[C@@H]1C(C(F)(F)F)=NN(c2ccc(OC3CCN(c4ncccc4Cl)CC3)cc2)[C@H]1CC(=O)O [Example 58, 2-((4S,5S)-1-(4-((1-(3-Chloropyridin-2-yl)piperidin-4-yl)oxy)phenyl)-4-methyl-3-(trifluoromethyl)-4,5-dihydro-1H-pyrazol-5-yl)acetic acid] | 293 | –
15 | C[C@@H]1C(C(F)(F)F)=NN(c2ccc(OC3CCN(c4ncccc4F)CC3)cc2)[C@H]1CC(=O)O [Example 41, 2-((4S,5S)-1-(4-((1-(3-Fluoropyridin-2-yl)piperidin-4-yl)oxy)phenyl)-4-methyl-3-(trifluoromethyl)-4,5-dihydro-1H-pyrazol-5-yl)acetic acid] | 628 | –
16 | Cc1cccc(F)c1N1CCC(Oc2ccc(N3N=C(C(F)(F)F)[C@@H](C)[C@@H]3CC(=O)O)cc2)CC1 [Example 42, 2-((4S,5S)-1-(4-((1-(2-Fluoro-6-methylphenyl)piperidin-4-yl)oxy)phenyl)-4-methyl-3-(trifluoromethyl)-4,5-dihydro-1H-pyrazol-5-yl)acetic acid] | 796 | –
17 | C[C@@H]1C(C(F)(F)F)=NN(c2ccc(OC3CCN(c4cccc(Cl)c4)CC3)cc2)[C@H]1CC(=O)O [Example 50, 2-((4S,5S)-1-(4-((1-(3-Chlorophenyl)piperidin-4-yl)oxy)phenyl)-4-methyl-3-(trifluoromethyl)-4,5-dihydro-1H-pyrazol-5-yl)acetic acid] | 2840 | –
18 | C[C@@H]1C(C(F)(F)F)=NN(c2ccc(OC3CCN(c4ccc(F)cc4)CC3)cc2)[C@H]1CC(=O)O [Example 49, 2-((4S,5S)-1-(4-((1-(4-Fluorophenyl)piperidin-4-yl)oxy)phenyl)-4-methyl-3-(trifluoromethyl)-4,5-dihydro-1H-pyrazol-5-yl)acetic acid] | 2650 | –
19 | C[C@@H]1C(C(F)(F)F)=NN(c2ccc(OC3CCN(c4cc(F)ccc4Cl)CC3)cc2)[C@H]1CC(=O)O [Example 59, 2-((4S,5S)-1-(4-((1-(2-Chloro-5-fluorophenyl)piperidin-4-yl)oxy)phenyl)-4-methyl-3-(trifluoromethyl)-4,5-dihydro-1H-pyrazol-5-yl)acetic acid] | 361 | –
20 | COc1ccnc(N2CCC(Oc3ccc(N4N=C(C(F)(F)F)[C@@H](C)[C@@H]4CC(=O)O)cc3)CC2)c1 [Example 45, 2-((4S,5S)-1-(4-((1-(4-Methoxypyridin-2-yl)piperidin-4-yl)oxy)phenyl)-4-methyl-3-(trifluoromethyl)-4,5-dihydro-1H-pyrazol-5-yl)acetic acid] | 1520 | –
21 | CCC1C(C(F)(F)F)=NN(c2ccc(OC3CCN(c4cc(OC)ncc4Cl)CC3C)cc2)C1CC(=O)O (single isomer, unassigned) [Example 86, Isomer 2, 2-(1-(4-((1-(5-Chloro-2-methoxypyridin-4-yl)-3-methylpiperidin-4-yl)oxy)phenyl)-4-ethyl-3-(trifluoromethyl)-4,5-dihydro-1H-pyrazol-5-yl)acetic acid] | 599 | –
22 | COc1cc(N2CCC(Oc3ccc(N4N=C(C(F)(F)F)[C@@H](C)[C@@H]4CC(=O)O)cc3)C(C)C2)c(Cl)cn1 (stereo partly drawn) [Example 81, Isomer 2, 2-((4S,5S)-1-(4-((1-(5-Chloro-2-methoxypyridin-4-yl)-3-methylpiperidin-4-yl)oxy)phenyl)-4-methyl-3-(trifluoromethyl)-4,5-dihydro-1H-pyrazol-5-yl)acetic acid] | 71 | –
